Test results taken from patent US6841661B2, “Glycopeptide antibacterial compounds, compositions containing same and methods of using same” (Princeton Univerisity, priority 1999, dated 2005).

Key:
[1] = system: E. faecium CL 5053 (VanA); experiment: microbe, parasite or virus in culture; type: cell-based; parameters: CL5053 (in vitro testing): unit not given here; conditions: Tables 7 and 8; unit not given
Text: (§1) National Committee for Clinical Laboratory Standards (NCCLS) guidelines [Methods for Dilution Antimicrobial Susceptibility Tests for Bacteria that Grow Aerobically-Fourth Edition; Approved Standard (NCCLS Document M7-A4, January 1997)] are used to establish the assay, although variations are made to optimize the published method according to the specific needs of the present investigation.
(§2) The test panel currently includes eight enterococci and 13 staphylococci, which are selected based upon their antibiotic susceptibility profiles. The methicillin-sensitive Staphylococcus aureus (MSSA) strain MB2985 (Smith isolate) is used to assesses the potential for serum protein binding of the compounds. The paired Gram-negative strains ASP #49 (envA-) and ASP #50 (envA+) (M. Salvatore/N. Lee) are included to judge membrane effects. Table 3 presents a detailed description of the strains included in the panel, including some of the sources of the strains of bacteria.
(§3) The glycopeptide antibiotic teicoplanin is included whenever possible.
(§4) TSB, containing 10% HS* for vancomycin intermediate S. aurcus/methicillin-resistant S. aureus (VISA/MRSA) strains, is inoculated from an appropriate source (frozen broth or agar slant) and grown approximately 17 hr at 35° C. with shaking at 220 rpm. Cultures are grown in tubes with a volume of 5 ml for enterococci and 2 ml for all other strains.
(§5) Four milliliter (4 ml) overnight culture is added to 36 ml physiological saline to obtain tenfold dilutions (enterococci). Overnight culture (0.4 ml) is added to 39.6 ml saline to obtain 100-fold dilutions (all strains except enterococci). Diluted cultures are maintained on ice until time of inoculation of test plates.
(§6) The number of CFU/mL is determined on BHI agar plates, although this is not done routinely because titers of overnight cultures are relatively constant. The test media include: • BHI for enterococci and VISA/MRSA; • MH II (i.e., cation-adjusted Mueller-Hinton broth) for MRS, MSS and E. coli.; • MH II+HSA for MSSA is prepared as follows: • a. 2×MHII+86mg/ml HSA • b. Dissolve 4.3 g HSA in 50 ml autoclaved 2x MH II. • c. pH to 7.0 by adding 2M MOPS, sodium. • d. Filter sterilize using 0.22 μm Coming cellulose acetate filter, used because of reported low protein binding. • e. 1×MH II+43 mg/ml HSA • f. Dilute the 2×medium twofold and filter as above. 5.8.6. Preparation of Test Plates
(§7) Using a Denley liquid handling system (or similar automatic device), 100 μ1×medium is added to each well in columns 2-12 of a 96-well microtiter dish. Using a multichannel pipettor, 100 μl 2×medium is added to each well in column 1. Plates may be filled on the day prior to assay, wrapped in plastic bags and refrigerated.
(§8) Vancomycin, Schering 29482, and teicoplanin are prepared on a weight per volume basis using 10 mM 3-(N-morpholino)propane-sulfonic acid (MOPS) buffer pH 7. Test compounds are received in solution in appropriate solvent (typically as 1 mg/ml in DMSO) or are dissolved in appropriate solvent prior to further dilution in 10 mM MOPS buffer, ph7. Consistent with NCCLS guidelines, antibiotics are handled aseptically but are not otherwise sterilized.
(§9) 100 μl appropriately diluted antibiotic solution is added to the first well of the designated row of the 96-well microtiter dish and serially diluted by twofold across the row using the Denley liquid handling system. With the aid of a Dynatech NEC 2000 inoculator, each well of the microtiter dish is inoculated with 1.5 μl diluted overnight culture, yielding approximately 1-5×10^6 CFU/ml for enterococci and approximately 3-7×10^5 CFU/ml for all other strains. Dishes are placed in stacks of no more than five, wrapped in plastic bags and incubated at 35° C. • Indication of result(s) type (% INH, IC50, Zone size, etc.) • MIC=minimum inhibitory concentration ps 5.8.9. Interpretation of the Results on the Basis of Activity […]

[2] = system: E. faecalis CL 4877 (VanB); experiment: microbe, parasite or virus in culture; type: cell-based; parameters: CL4877 (in vitro testing): unit not given here; conditions: Tables 7 and 8; unit not given
Text: as §1, §2, §3, §4, §5, §6, §7, §8, §9

[3] = system: CL 4931, CL 5053, CL 5242 and CL 4877; type: cell-based, E. faecium, E. faecalis; parameters: unit not given here; conditions: mean of CL4931, CL5053, CL5242, CL4877; unit not given
Text: as §1, §2, §3, §4, §5, §6, §7, §8, §9

[4] = system: E. faecium CL 5242 (VanA); experiment: microbe, parasite or virus in culture; type: cell-based; parameters: CL5242 (in vitro testing): unit not given here; conditions: Tables 7 and 8; unit not given
Text: as §1, §2, §3, §4, §5, §6, §7, §8, §9

[5] = system: E. faecium CL 4931 (VanA); experiment: microbe, parasite or virus in culture; type: cell-based; parameters: CL4931 (in vitro testing): unit not given here; conditions: Tables 7 and 8; unit not given
Text: as §1, §2, §3, §4, §5, §6, §7, §8, §9

SMILES	CL5053 (in vitro testing) [1]	CL4877 (in vitro testing) [2]	Mean [3]	CL5242 (in vitro testing) [4]	CL4931 (in vitro testing) [5]
CNC(CC(C)C)C(=O)NC1C(=O)NC(CC(N)=O)C(=O)NC2C(=O)NC3C(=O)NC(C(=O)NC(C(=O)O)c4cc(O)cc(O)c4-c4cc3ccc4O)C(O)c3ccc(c(Cl)c3)Oc3cc2cc(c3OC2OC(CN3CCCCC3)C(O)C(O)C2OC2CC(C)(NCc3ccc(OCc4ccc(Cl)c(Cl)c4)cc3)C(O)C(C)O2)Oc2ccc(cc2Cl)C1O (centres unmarked) [Compound 168]	16	1	18.3	8	32
CNC(CC(C)C)C(=O)NC1C(=O)NC(CC(N)=O)C(=O)NC2C(=O)NC3C(=O)NC(C(=O)NC(C(=O)O)c4cc(O)cc(O)c4-c4cc3ccc4O)C(O)c3ccc(c(Cl)c3)Oc3cc2cc(c3OC2OC(CNCc3ccc(C)cc3)C(O)C(O)C2OC2CC(C)(NCc3ccc(OCc4ccc(Cl)c(Cl)c4)cc3)C(O)C(C)O2)Oc2ccc(cc2Cl)C1O (centres unmarked) [Compound 141]	8	1	3.8	2	4
CNC(CC(C)C)C(=O)NC1C(=O)NC(CC(N)=O)C(=O)NC2C(=O)NC3C(=O)NC(C(=O)NC(C(=O)O)c4cc(O)cc(O)c4-c4cc3ccc4O)C(O)c3ccc(c(Cl)c3)Oc3cc2cc(c3OC2OC(CNC3CCCC3)C(O)C(O)C2OC2CC(C)(NCc3ccc(OCc4ccc(Cl)c(Cl)c4)cc3)C(O)C(C)O2)Oc2ccc(cc2Cl)C1O (centres unmarked) [Compound 144]	8	2	4.0	2	4
CNC(CC(C)C)C(=O)NC1C(=O)NC(CC(N)=O)C(=O)NC2C(=O)NC3C(=O)NC(C(=O)NC(C(=O)O)c4cc(O)cc(O)c4-c4cc3ccc4O)C(O)c3ccc(c(Cl)c3)Oc3cc2cc(c3OC2OC(CNCc3ccc(F)cc3)C(O)C(O)C2OC2CC(C)(NCc3ccc(OCc4ccc(Cl)c(Cl)c4)cc3)C(O)C(C)O2)Oc2ccc(cc2Cl)C1O (centres unmarked) [Compound 136]	4	0.12	2.3	1	4
CNC(CC(C)C)C(=O)NC1C(=O)NC(CC(N)=O)C(=O)NC2C(=O)NC3C(=O)NC(C(=O)NC(C(=O)O)c4cc(O)cc(O)c4-c4cc3ccc4O)C(O)c3ccc(c(Cl)c3)Oc3cc2cc(c3OC2OC(CN)C(O)C(O)C2OC2CC(C)(NCc3ccc(OCc4ccc(Cl)cc4Cl)cc3)C(O)C(C)O2)Oc2ccc(cc2Cl)C1O (centres unmarked) [Compound 173]	8	2	4.75	1	8
CNC(CC(C)C)C(=O)NC1C(=O)NC(CC(N)=O)C(=O)NC2C(=O)NC3C(=O)NC(C(=O)NC(C(=O)O)c4cc(O)cc(O)c4-c4cc3ccc4O)C(O)c3ccc(c(Cl)c3)Oc3cc2cc(c3OC2OC(CN)C(O)C(O)C2OC2CC(C)(NCc3ccc(OCc4ccc(Cl)c(Cl)c4)c(OC)c3)C(O)C(C)O2)Oc2ccc(cc2Cl)C1O (centres unmarked) [Compound 184]	4	8	4.5	2	4
CNC(CC(C)C)C(=O)NC1C(=O)NC(CC(N)=O)C(=O)NC2C(=O)NC3C(=O)NC(C(=O)NC(C(=O)O)c4cc(O)cc(O)c4-c4cc3ccc4O)C(O)c3ccc(c(Cl)c3)Oc3cc2cc(c3OC2OC(CN)C(O)C(O)C2OC2CC(C)(NCc3ccc(OCc4ccc(Cl)c(Cl)c4)cc3Cl)C(O)C(C)O2)Oc2ccc(cc2Cl)C1O (centres unmarked) [Compound 183]	4	2	4	2	8
